Reference: PubChem BioAssay (NCI)
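Briefly, cells in 96-well plates were exposed to five compound concentrations for 48 h, and endpoints were estimated by linear interpolation. TGI denotes the concentration required for complete inhibition of growth.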

Columns and labels:
Experiment in all cases: NCI anticancer screen, dose series, 48 h
SK-MEL-5 melanoma = system: SK-MEL-5 melanoma
U251 CNS = system: U251 CNS
CCRF-CEM leukemia = system: CCRF-CEM leukemia
NCI-H23 lung = system: NCI-H23 lung
NCI-H522 lung = system: NCI-H522 lung
OVCAR-4 ovarian = system: OVCAR-4 ovarian
SNB-75 CNS = system: SNB-75 CNS
HCT-15 colon = system: HCT-15 colon
RPMI-8226 leukemia = system: RPMI-8226 leukemia
HOP-62 NSCLC = system: HOP-62 NSCLC
SW-620 colon = system: SW-620 colon
UACC-257 melanoma = system: UACC-257 melanoma
CAKI-1 renal = system: CAKI-1 renal
SNB-78 CNS = system: SNB-78 CNS
SNB-19 CNS = system: SNB-19 CNS
HT29 colon = system: HT29 colon
A549 NSCLC = system: A549 NSCLC
786-0 renal = system: 786-0 renal
MALME-3M melanoma = system: MALME-3M melanoma
UACC-62 melanoma = system: UACC-62 melanoma
IGROV1 ovarian = system: IGROV1 ovarian
RXF-631 renal = system: RXF-631 renal
SF-268 CNS = system: SF-268 CNS
OVCAR-3 ovarian = system: OVCAR-3 ovarian
M14 melanoma = system: M14 melanoma
DLD-1 colon = system: DLD-1 colon
KM12 colon = system: KM12 colon
UO-31 renal = system: UO-31 renal
HCT-116 colon = system: HCT-116 colon
SR leukemia = system: SR leukemia
HOP-92 NSCLC = system: HOP-92 NSCLC
EKVX NSCLC = system: EKVX NSCLC
NCI-H460 lung = system: NCI-H460 lung
NCI-H226 lung = system: NCI-H226 lung
HCC-2998 colon = system: HCC-2998 colon
RXF 393 renal = system: RXF 393 renal
COLO 205 colon = system: COLO 205 colon
M19-MEL melanoma = system: M19-MEL melanoma
SN12C renal = system: SN12C renal
HL-60(TB) leukemia = system: HL-60(TB) leukemia
MOLT-4 leukemia = system: MOLT-4 leukemia
TK-10 renal = system: TK-10 renal
XF 498 CNS = system: XF 498 CNS
LXFL 529 NSCLC = system: LXFL 529 NSCLC
KM20L2 colon = system: KM20L2 colon
K-562 leukemia = system: K-562 leukemia
DMS 273 small cell lung = system: DMS 273 small cell lung
SK-OV-3 ovarian = system: SK-OV-3 ovarian
SF-539 CNS = system: SF-539 CNS
LOX IMVI melanoma = system: LOX IMVI melanoma
SF-295 CNS = system: SF-295 CNS
A498 renal = system: A498 renal
OVCAR-8 ovarian = system: OVCAR-8 ovarian
DMS 114 small cell lung = system: DMS 114 small cell lung
ACHN renal = system: ACHN renal
SK-MEL-28 melanoma = system: SK-MEL-28 melanoma
SK-MEL-2 melanoma = system: SK-MEL-2 melanoma
HOP-18 NSCLC = system: HOP-18 NSCLC
DU-145 prostate = system: DU-145 prostate
OVCAR-5 ovarian = system: OVCAR-5 ovarian

Measured: TGI

Cc1ccc(S(=O)(=O)C(CC(NC=O)S(=O)(=O)c2ccc(C)cc2)NC=O)cc1 (centres undefined)
not listed: ACHN renal | SK-MEL-28 melanoma | SK-MEL-2 melanoma | HOP-18 NSCLC | DU-145 prostate | OVCAR-5 ovarian
> 100 µM: all other assays above

C=C=C(Sc1ccccc1)C(C)(C)O
not listed: SK-MEL-5 melanoma | HOP-62 NSCLC | CAKI-1 renal | SNB-78 CNS | A549 NSCLC | EKVX NSCLC | DMS 273 small cell lung | DMS 114 small cell lung
> 100 µM: all other assays above

COc1ccc(/C=C/C(=O)c2sc(NC(=S)NC(=O)c3ccc(Cl)cc3)nc2C)cc1OC
62 µM: RPMI-8226 leukemia
88.1 µM: CCRF-CEM leukemia
39.5 µM: UACC-62 melanoma
96.8 µM: K-562 leukemia
not listed: SK-MEL-5 melanoma | NCI-H522 lung | SNB-75 CNS | HOP-92 NSCLC | DMS 273 small cell lung | A498 renal | DU-145 prostate
> 100 µM: all other assays above
